Values joined by “and” are separate entries in the source; they are usually repeats but may differ in a detail not shown here. Equal entries are not always repeated.
Key:
[1] = test system: inner and outer hair cells of the cochlea; experiment: Hair cell counts, delayed dosing after noise trauma; type: in vivo, guinea pig
Description: (§1) Guinea pigs were exposed to 120 dB, 4 kHz noise for 6 hr. The compound of Formula II was administered beginning 2 hours to 1 day prior to noise trauma, or 1 day after noise trauma, or 4 days after noise trauma. Dosing continued for 2 weeks after noise exposure. As described above, cochleas were prepared and numbers of preserved and lost inner hair cells (IHCs) and outer hair cells of different rows (OHC1, OHC2, OHC3) were counted 2 weeks post noise trauma.

[2] = test system: hair cells of the organ of Corti; experiment: TUNEL staining of apoptotic hair cells in noise-exposed cochleas; type: in vivo, guinea pig; conditions: first 6 days after noise exposure
Description: Adult Dunkin-Hartley female guinea pigs (weight 300-500 g) were exposed, 4 animals at a time, to octave band noise, with a center frequency of 4.0 kHz, 120 dB SPL for 6 hr as described in Example 1. Fragmented hair cell nuclei were assessed from noise-exposed cochleas immediately and 1, 2, 4, 6, 8 and 14 days after noise exposure. Noise-exposed and nonexposed guinea pigs were decapitated under deep anesthesia and inner ears were perilymphatically perfused with 4% paraformaldehyde in PBS, and processed for […] paraffin-embedded sections (Ylikoski et al., Hear Res 65:69-78, 1993; Ylikoski et al., Hear Res 124:17-26, 1998). TUNEL-staining was performed as described below. DNA fragmentation was also verified by DAPI nuclear counterstain (see below). Further, trauma-induced nuclear fragmentation was verified by morphological analysis of contralateral cochleas that were perilymphatically fixed with 2.5% glutaraldehyde in 0.1M phosphate buffer, pH 7.4, postfixed with 1% osmium tetroxide, embedded in epoxy resin, and prepared for surface preparations (see below). Selected cochlear segments were then cut in transverse and horizontal planes to semi-thin ([…]) sections that were stained with 1% toluidine blue. Analysis was done under an Olympus Provis microscope equipped with Nomarski optics. […]

[3] = test system: noise-exposed guinea pigs; experiment: ABR threshold shifts, delayed dosing after noise trauma; type: in vivo, guinea pig
Description: as §1
ABRs were determined 1 day before noise trauma (baseline values) and 2 weeks post noise trauma. […] Thresholds were determined at frequencies 2, 4, 8, 16 and 32 kHz from a set of responses at varying intensities with 5 dB intervals and 1000 sweeps near the threshold. ABRs were measured with System II hardware and BioSig software. Ketamine (40 mg/kg) and xylazine (10 mg/kg) were used for anaesthesia.

[4] = test system: vestibular hair cells (ampullary cristae); experiment: Hair cell counts in ampullary cristae after gentamicin treatment; type: in vivo, guinea pig
Description: Two experimental groups were formed. Group 1 guinea pigs served as control and were treated with gentamicin only. The animals were injected s.c. with gentamicin at 120 mg/kg body weight, once daily for 14 days. Three guinea pigs (yielding a total of 6 inner ears) were included in this group. The animals were decapitated 30 days after the start of the injections.
Group 2 guinea pigs were treated with gentamicin plus Formula II. The animals were injected s.c. with GM at 120 mg/kg body weight, plus Formula II at 1 mg/kg, once daily for 14 days. Formula II treatment started 1 day before GM injections. Formula II treatment was continued for 28 or 29 days. Four guinea pigs (8 inner ears) were included in this group. The animals were decapitated 30 days after the start of GM injections.
Guinea pigs were decapitated under deep anaesthesia and the inner ears were perilymphatically fixed and immersed with 2.5% glutaraldehyde in 0.1 M phosphate buffer (pH 7.4), postfixed with 1% osmium tetroxide, and embedded in Epon. Cochleas were processed for cytocochleograms (Ylikoski, Acta Otolaryngol (Stockh) Suppl 326:5-20, 1975). The separately dissected and Epon-embedded vestibular organs were cut for 1 μm-thick sections. Every 25th section was collected onto slides and stained with 1% toluidine blue. […] Two control (GM-treated) and 3 Formula II plus GM-treated ampullae were used for analysis. The presence of cell nuclei in the sensory layer (upper half) of the sensory epithelium was regarded as the presence of hair cells. Supporting cell nuclei were clearly distinguished from hair cells by their position (lower part) in the epithelium and by toluidine blue that stains the hair cells weaker than the supporting cells. Hair cell loss was measured by comparing the number of hair cell nuclei in the sensory layer to the number of […].

[5] = test system: hair cells of cochlear explants; experiment: TUNEL staining of hair cells in neomycin-exposed cochlear explants; type: cell-based, rat; conditions: 500 nM Formula II coincubated with neomycin; n=5 explants
Description: Six, 12 and 24 hr after adding 100 μM neomycin to the medium, cochlear cultures were fixed with 4% paraformaldehyde in PBS for 30 min. The specimens were prepared for 5 um-thick paraffin sections. They were stained with a TUNEL-kit, mounted in Vectashield containing DAPI nuclear counterstain (Vector, Burlingame, Calif.), and viewed under an Olympus Provis microscope (Tokyo, Japan) using epifluorescence. In addition to TUNEL-staining, DNA fragmentation was verified under UV illumination using DAPI counterstain.

## CCSCc1ccc2c(c1)c1c3c(c4c5cc(CSCC)ccc5n5c4c1n2C1C[C@](O)(C(=O)OC)[C@]5(C)O1)CNC3=O [Formula II]
[1]; 1 day delayed dosing, single cochlea
  OHC loss total (%): 6.4% and 3.7% and 1.2% and 2.0% and 5.4% and 2.4%
[1]; following exposure to noise, 1 day delayed P<0.01, 4 day delayed P<0.05
  loss of hair cells versus control cochleas: less loss of hair cells
[2]
  amount of apoptotic hair cell loss versus control cochleas: less
[3]; Formula II begun prior to the lesion, noise 120 dB 4 kHz 6 hr, 2 weeks post noise
  average threshold shift of control animals greater than that of treated animals: 20-40 dB
[3]; Formula II-treated animals, 2 weeks post noise
  ABR threshold shift versus vehicle-treated, noise-exposed controls: less threshold shift at all frequencies tested
[3]; administration begun 1 or 4 days after exposure to noise
  ABR threshold shift, delayed administration: Decreased threshold shifts
[4]; GM + Formula II, single ampulla, all sections counted
  Total number of hair cells: 518 and 328 and 620
[4]; GM + Formula II, single ampulla, decimal comma
  Hair cells per frame: 1,9 and 2,2
[4]; gentamicin 120 mg/kg plus Formula II 1 mg/kg, relative hair cell loss, n=3 ampullae
  protective effect in the ampullae: 70%
[5]
  TUNEL-labeling in hair cells: prevented

From patent US6448283B1, “Methods for preventing/treating damage to sensory hair cells and cochlear neurons” (Cephalon, Inc., priority 1998, dated 2002)
